The experiment concerns the target T1, Adrenergic receptor alpha-1 (Rattus norvegicus, UniProt P15823+P23944+P43140).
T1 sequence (P15823 whole entry): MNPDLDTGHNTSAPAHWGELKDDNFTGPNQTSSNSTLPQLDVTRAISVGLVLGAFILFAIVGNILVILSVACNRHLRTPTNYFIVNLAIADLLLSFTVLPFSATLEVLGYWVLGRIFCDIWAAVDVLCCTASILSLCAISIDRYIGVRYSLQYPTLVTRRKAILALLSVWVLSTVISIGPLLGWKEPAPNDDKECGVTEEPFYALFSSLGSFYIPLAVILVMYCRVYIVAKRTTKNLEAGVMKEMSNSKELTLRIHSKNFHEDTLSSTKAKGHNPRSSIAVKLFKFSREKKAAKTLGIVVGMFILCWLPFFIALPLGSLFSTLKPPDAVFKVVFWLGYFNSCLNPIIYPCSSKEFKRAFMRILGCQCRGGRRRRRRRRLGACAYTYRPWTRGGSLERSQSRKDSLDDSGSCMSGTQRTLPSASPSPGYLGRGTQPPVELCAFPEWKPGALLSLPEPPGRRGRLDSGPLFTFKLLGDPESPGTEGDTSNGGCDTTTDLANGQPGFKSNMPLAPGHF
T1 sequence (P23944 whole entry): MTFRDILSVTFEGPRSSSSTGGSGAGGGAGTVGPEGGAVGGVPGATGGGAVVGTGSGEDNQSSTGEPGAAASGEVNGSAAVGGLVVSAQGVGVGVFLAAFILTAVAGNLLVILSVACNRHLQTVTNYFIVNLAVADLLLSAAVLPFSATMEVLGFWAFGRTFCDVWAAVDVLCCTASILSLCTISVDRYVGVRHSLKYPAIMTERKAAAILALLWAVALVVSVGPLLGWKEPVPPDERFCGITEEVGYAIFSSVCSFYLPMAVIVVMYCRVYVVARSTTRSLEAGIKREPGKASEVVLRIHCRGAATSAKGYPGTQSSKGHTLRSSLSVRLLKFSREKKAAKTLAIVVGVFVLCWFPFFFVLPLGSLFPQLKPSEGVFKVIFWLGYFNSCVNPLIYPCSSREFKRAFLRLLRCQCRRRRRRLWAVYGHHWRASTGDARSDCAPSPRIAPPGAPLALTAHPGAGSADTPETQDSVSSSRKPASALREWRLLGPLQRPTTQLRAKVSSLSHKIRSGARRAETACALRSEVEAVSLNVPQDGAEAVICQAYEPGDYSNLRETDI
T1 sequence (P43140 whole entry): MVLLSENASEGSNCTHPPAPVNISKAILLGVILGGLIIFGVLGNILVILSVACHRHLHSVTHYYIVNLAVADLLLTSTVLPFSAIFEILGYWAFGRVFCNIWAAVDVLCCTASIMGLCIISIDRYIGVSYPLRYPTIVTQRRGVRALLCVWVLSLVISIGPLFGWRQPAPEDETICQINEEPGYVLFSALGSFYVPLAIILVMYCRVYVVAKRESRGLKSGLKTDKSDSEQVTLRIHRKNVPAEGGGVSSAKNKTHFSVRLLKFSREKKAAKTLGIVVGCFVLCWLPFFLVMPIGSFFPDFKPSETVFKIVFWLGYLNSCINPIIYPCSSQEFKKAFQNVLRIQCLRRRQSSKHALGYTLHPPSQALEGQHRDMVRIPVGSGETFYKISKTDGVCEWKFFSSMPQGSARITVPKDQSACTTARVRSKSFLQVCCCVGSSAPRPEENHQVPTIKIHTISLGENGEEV
The experiment is described as follows: Compound was evaluated for inhibition of [3H]prazosin binding to Alpha-1 adrenergic receptor in rat forebrain homogenate. It is filed as tissue-based, Brain.

Here are results for six compounds from ChEMBL document CHEMBL1121888, “(alpha S)-erythro-alpha-methylepinephrine: preparation and stereoselective binding to adrenergic receptors in rat forebrain” (J Med Chem, 1981).

Compound `CNC(C)C(O)c1ccc(O)c(O)c1` (stereo unspecified) [DIOXIFEDRINE] displayed a Ki of 28 µM.
`CN[C@H](C)[C@@H](O)c1ccc(O)c(O)c1`: the Ki was found to be 11 µM.
The figure for `C[C@H](N)[C@H](O)c1ccc(O)c(O)c1` (stereo in doubt; 1) [LEVONORDEFRIN] is 7.3 µM; for `C[C@H](N)[C@H](O)c1ccc(O)c(O)c1` (stereo in doubt; form 2) [LEVONORDEFRIN] it is 2315 µM; for `CN[C@@H](C)[C@H](O)c1ccc(O)c(O)c1` it is 146 µM.
For `C[C@H](N)[C@H](O)c1ccc(O)c(O)c1` (stereo in doubt; form 1) [LEVONORDEFRIN], the Ki came to 3.6 µM.
